Measurements taken from US20110166107A1, “METHODS AND KITS FOR DETECTING RISK FACTORS FOR DEVELOPMENT OF JAW OSTEONECROSIS AND METHODS OF TREATMENT THEREOF” (UNIVERSITY OF FLORIDA RESEARCH FOUNDATION INC., priority 2008, published 2011).

Test: Chart review of BONJ incidence in patients treated with bisphosphonates (UF / VAMC)
Format: in vivo, human
Conditions: outpatient bone marrow transplant clinic, all patients had myeloma; pamidronate only (total incidence 13%)
From the text: Medical and dental charts at the University of Florida (UF) and the associated Veterans Administration Medical Center (VAMC) were reviewed. […] There were 21 males. […] Fourteen patients had modest increases in their serum creatinine concentrations. The average number of previous chemo/radiotherapy regimens was 3.5. Nine patients had Thalidomide, 5 had Bortizomib. Primary disease status was as follows: 12 patients in clinical remission, 5 with stable disease and 10 with progressive disease. Eight patients received statin therapy and 6 had diabetes mellitus. The median length of treatment with BP before the diagnosis of BONJ was 28 months. BONJ involved the mandible in 21 patients, maxilla in 4 and both in 2 patients. The most frequent presentation was pain, swelling, and exposed bone (FIG. 1). […] The BONJ incidence differed among the 3 centers where these patients were treated. […] The incidence in the VAMC was 4.2% while the incidence in the Cancer Center clinic at UF was 1.7%. In the latter two groups, patients had mostly solid tumors. The results described herein are consistent with the reports of increased incidence of BONJ with greater duration of therapy and that myeloma patients are more likely to develop the complication than solid tumor patients.

NCCC(O)(P(=O)(O)O)P(=O)(O)O [pamidronate]
BONJ incidence: 4%
